Where two headings read alike, the source gives them in different places. Starred links: 1 amine or outer side, 2 acyl side, 3 side chain; linkers in the order of their positions; H or OH if unused. Positions of bridges follow the written chain, without caps; N, C: chain ends. Non-standard residues stand in square brackets, D forms with d. Residues, ends and D or L forms follow the SMILES beside them. Phe(4-CONH2) = NC(=O)c1ccc(C[C@H](N)C(=O)O)cc1; Phe(3-Me) = Cc1cccc(C[C@H](N)C(=O)O)c1; 2Nal = N[C@@H](Cc1ccc2ccccc2c1)C(=O)O; βAsp = O=C(O)[C@H](CC(=O)[*:2])N[*:1]; Cit = NC(=O)NCCC[C@H](N)C(=O)O; Ahp(2) = CCCCC[C@H](N)C(=O)O; NMeNle = CCCC[C@H](NC)C(=O)O; Tle = CC(C)(C)[C@H](N)C(=O)O; NMeS = CN[C@@H](CO)C(=O)O; NHexGly = CCCCCCNCC(=O)O; Nle = CCCC[C@H](N)C(=O)O; Aun = NCCCCCCCCCCC(=O)O; Dap = NC[C@H](N)C(=O)O; AEEA = NCCOCCOCC(=O)O
Target: T1, mouse VISTA (mVISTA) (Mus musculus, UniProt Q9D659)
T1 construct: expressed in transfected cells; host or cells: Human embryonic kidney 293T cells
T1 sequence (Q9D659 33-308): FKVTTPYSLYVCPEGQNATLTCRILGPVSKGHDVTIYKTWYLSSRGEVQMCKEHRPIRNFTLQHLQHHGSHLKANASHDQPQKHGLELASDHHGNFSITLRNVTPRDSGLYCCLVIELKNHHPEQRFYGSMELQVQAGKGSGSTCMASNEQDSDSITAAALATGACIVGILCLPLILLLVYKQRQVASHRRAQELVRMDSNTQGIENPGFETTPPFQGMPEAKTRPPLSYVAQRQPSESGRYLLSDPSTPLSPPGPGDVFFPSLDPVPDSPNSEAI
Test: Cell-Based Binding High-Content Assay For mVISTA (HC CBA mVISTA)
How it was run: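 293T cells expressing mouse VISTA, with compounds added either after seeding ("no wash") or before seeding and then washed out after 1 h. Biotinylated peptide 2 nM for 30 min at room temperature, then detection with Alexa 647–streptavidin. After fixation with Hoechst stain, plates were high-content imaged; IC50 from four-parameter logistic fit.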

[1] = 293T cells expressing mouse VISTA, competition with biotinylated peptide (2 nM), read-out: HC CBA mVISTA IC50
[2] = cell-based binding high-content assay, mVISTA, read-out: HC CBA miPr ISTA IC50

## CCCCCCN1CC(=O)N[C@@H](Cc2ccc(O)cc2)C(=O)N[C@@H](CCCC)C(=O)N[C@@H](CC(N)=O)C(=O)N[C@@H](CCCNC(=N)N)C(=O)N[C@@H](CC(C)C)C(=O)N[C@@H](CCCCC)C(=O)N2CCC[C@H]2C(=O)N[C@@H](C(C)C)C(=O)N[C@@H](CO)C(=O)N[C@H](C(=O)NCC(=O)O)CSCC(=O)N[C@@H](Cc2ccccc2)C(=O)N[C@@H](Cc2ccc(O)cc2)C(=O)N[C@@H](CC(=O)O)C1=O [Example 1046] ({CH2CO}-FYD[NHexGly]Y[Nle]NRL[Ahp(2)]PVSCG-OH; thioether N-14)
[1]
  IC50: 14 nM

## CCCCCCN1CC(=O)N[C@@H](Cc2ccc(O)cc2)C(=O)N[C@@H](CC(C)C)C(=O)N[C@@H](CC(N)=O)C(=O)N[C@@H](CCCNC(=N)N)C(=O)N(C)[C@@H](CO)C(=O)N[C@@H](CCCCC)C(=O)N2CCC[C@H]2C(=O)N[C@@H](C(C)(C)C)C(=O)N[C@@H](CC(=O)O)C(=O)N[C@H](C(=O)N[C@@H](CC(=O)NCCOCCOCC(=O)N[C@@H](CC(=O)O)C(=O)NCCOCCOCC(=O)NCCCCCCCCCCC(=O)O)C(=O)O)CSCC(=O)N[C@@H](Cc2cccc(C)c2)C(=O)N[C@@H](Cc2ccc(O)cc2)C(=O)N[C@@H](CC(=O)O)C1=O [compound 2071] ({CH2CO}-[Phe(3-Me)]YD[NHexGly]YLNR[NMeS][Ahp(2)]P[Tle]DC[βAsp][AEEA]D[AEEA][Aun]-OH; thioether N-14)
cell-based binding high-content assay, mVISTA, read-out: HC CBA miPrISTA IC50
  IC50: 27.8 nM

## CCCCCCN1CC(=O)N[C@@H](Cc2ccc(O)cc2)C(=O)N[C@@H](CCCC)C(=O)N[C@@H](CC(N)=O)C(=O)N[C@@H](CCCNC(=N)N)C(=O)N(C)[C@@H](CCCC)C(=O)N[C@@H](CCCCC)C(=O)N2CCC[C@H]2C(=O)N[C@@H](C(C)(C)C)C(=O)N[C@@H](CO)C(=O)N[C@H](C(=O)N[C@@H](CC(=O)NCCOCCOCC(=O)N[C@@H](CC(=O)O)C(=O)NCCOCCOCC(=O)NCCCCCCCCCCC(=O)O)C(=O)O)CSCC(=O)N[C@@H](Cc2cccc(C)c2)C(=O)N[C@@H](Cc2c[nH]c3ccccc23)C(=O)N[C@@H](CC(=O)O)C1=O [compound 2024] ({CH2CO}-[Phe(3-Me)]WD[NHexGly]Y[Nle]NR[NMeNle][Ahp(2)]P[Tle]SC[βAsp][AEEA]D[AEEA][Aun]-OH; thioether N-14)
[2]
  IC50: 40.3 nM

## CCCCCCN1CC(=O)N[C@@H](Cc2ccc(O)cc2)C(=O)N[C@@H](CCCC)C(=O)N[C@@H](CC(=O)O)C(=O)N[C@@H](CCCNC(=N)N)C(=O)N(C)[C@@H](CCCC)C(=O)N[C@@H](CCCCC)C(=O)N2CCC[C@H]2C(=O)N[C@@H](C(C)C)C(=O)N[C@@H](CC(=O)O)C(=O)N[C@H](C(=O)N[C@@H](CC(=O)O)C(N)=O)CSCC(=O)N[C@@H](Cc2ccc3ccccc3c2)C(=O)N[C@@H](Cc2c[nH]c3ccccc23)C(=O)N[C@@H](CC(=O)O)C1=O [compound 1243] ({CH2CO}-[2Nal]WD[NHexGly]Y[Nle]DR[NMeNle][Ahp(2)]PVDCD-NH2; thioether N-14)
cell-based binding high-content assay, mVISTA, the 15th table, read-out: HC CBA mVISTA IC50
  IC50: 20.1 nM

## CCCCCCN1CC(=O)N[C@@H](Cc2ccc(O)cc2)C(=O)N[C@@H](CC(C)C)C(=O)N[C@@H](CC(N)=O)C(=O)N[C@@H](CCCNC(=N)N)C(=O)N[C@@H](CC(C)C)C(=O)N[C@@H](CCCCC)C(=O)N2CCC[C@H]2C(=O)N[C@@H](C(C)C)C(=O)N[C@@H](C(C)C)C(=O)N[C@H](C(=O)NCCOCCOCC(=O)N[C@@H](CC(=O)NCCOCCOCC(=O)NCCCCCCCCCCC(=O)O)C(=O)O)CSCC(=O)N[C@@H](Cc2ccccc2)C(=O)N[C@@H](Cc2ccc(O)cc2)C(=O)N[C@@H](CC(=O)O)C1=O [Example 2201] ({CH2CO}-FYD[NHexGly]YLNRL[Ahp(2)]PVVC[AEEA][βAsp][AEEA][Aun]-OH; thioether N-14)
read-out: HC CBA mVISTA IC50
  IC50: 20.9 nM

## CCCCCCN1CC(=O)N[C@@H](Cc2ccc(O)cc2)C(=O)N[C@@H](CCCC)C(=O)NCC(=O)N[C@@H](CCCNC(=N)N)C(=O)N[C@@H](CC(C)C)C(=O)N[C@@H](CCCCC)C(=O)N2CCC[C@H]2C(=O)N[C@@H](C(C)C)C(=O)N[C@@H](CCC(=O)O)C(=O)N[C@H](C(=O)NCC(N)=O)CSCC(=O)N[C@@H](Cc2ccc3ccccc3c2)C(=O)N[C@@H](Cc2ccc(O)cc2)C(=O)N[C@@H](CC(=O)O)C1=O [Ex 1287] ({CH2CO}-[2Nal]YD[NHexGly]Y[Nle]GRL[Ahp(2)]PVECG-NH2; thioether N-14)
cell-based binding high-content assay, mVISTA, the 16th table, read-out: HC CBA mVISTA IC50
  IC50: 42.7 nM

## CCCCCCN1CC(=O)N[C@@H](Cc2ccc(O)cc2)C(=O)N[C@@H](CC(C)C)C(=O)N[C@@H](CC(N)=O)C(=O)N[C@@H](CCCNC(=N)N)C(=O)N(C)[C@@H](CCCC)C(=O)N[C@@H](CCCCC)C(=O)N2CCC[C@H]2C(=O)N[C@@H](C(C)C)C(=O)N[C@@H](CO)C(=O)N[C@H](C(=O)NCC(N)=O)CSCC(=O)N[C@@H](Cc2ccc(C(N)=O)cc2)C(=O)N[C@@H](Cc2ccc(O)cc2)C(=O)N[C@@H](CC(=O)O)C1=O [compound 1213] ({CH2CO}-[Phe(4-CONH2)]YD[NHexGly]YLNR[NMeNle][Ahp(2)]PVSCG-NH2; thioether N-14)
read-out: HC CBA mVISTA IC50
  IC50: 27.1 nM

## CCCCCCN1CC(=O)N[C@@H](Cc2ccc(O)cc2)C(=O)N[C@@H](C(C)C)C(=O)NCC(=O)N[C@@H](CCCNC(=N)N)C(=O)N[C@@H](CC(C)C)C(=O)N[C@@H](CCCCC)C(=O)N2CCC[C@H]2C(=O)N[C@@H](C(C)C)C(=O)N[C@@H](CC(=O)O)C(=O)N[C@H](C(=O)N[C@@H](CO)C(=O)N[C@@H](CN)C(=O)N[C@@H](CCC(N)=O)C(=O)O)CSCC(=O)N[C@@H](Cc2ccc3ccccc3c2)C(=O)N[C@@H](Cc2ccc(O)cc2)C(=O)N[C@@H](CC(=O)O)C1=O [Example 1162] ({CH2CO}-[2Nal]YD[NHexGly]YVGRL[Ahp(2)]PVDCS[Dap]Q-OH; thioether N-14)
[1]
  IC50: 35.3 nM

## CCCCCCN1CC(=O)N[C@@H](Cc2ccc(O)cc2)C(=O)N[C@@H](CCCC)C(=O)N[C@@H](CC(=O)O)C(=O)N[C@@H](CCCNC(=N)N)C(=O)N[C@@H](CC(C)C)C(=O)N[C@@H](CCCCC)C(=O)N2CCC[C@H]2C(=O)N[C@@H](C(C)C)C(=O)N[C@@H](CC(N)=O)C(=O)N[C@H](C(=O)NCC(=O)NCCOCCOCC(=O)N[C@@H](CC(=O)O)C(=O)NCCOCCOCC(=O)NCCCCCCCCCCC(=O)O)CSCC(=O)N[C@@H](Cc2ccccc2)C(=O)N[C@@H](Cc2ccc(O)cc2)C(=O)N[C@@H](CC(=O)O)C1=O [compound 2005] ({CH2CO}-FYD[NHexGly]Y[Nle]DRL[Ahp(2)]PVNCG[AEEA]D[AEEA][Aun]-OH; thioether N-14)
[2]
  IC50: 10.5 nM

## CCCCCCN1CC(=O)N[C@@H](Cc2ccc(O)cc2)C(=O)N[C@@H](CCCC)C(=O)N[C@@H](CC(=O)O)C(=O)N[C@@H](CCCNC(N)=O)C(=O)N[C@@H](CC(C)C)C(=O)N[C@@H](CCCCC)C(=O)N2CCC[C@H]2C(=O)N[C@@H](C(C)C)C(=O)N[C@@H](CC(N)=O)C(=O)N[C@H](C(=O)NCC(=O)NCCOCCOCC(=O)N[C@@H](CC(=O)O)C(=O)NCCOCCOCC(=O)NCCCCCCCCCCC(=O)O)CSCC(=O)N[C@@H](Cc2ccccc2)C(=O)N[C@@H](Cc2ccc(O)cc2)C(=O)N[C@@H](CC(=O)O)C1=O [compound 2018] ({CH2CO}-FYD[NHexGly]Y[Nle]D[Cit]L[Ahp(2)]PVNCG[AEEA]D[AEEA][Aun]-OH; thioether N-14)
[2]
  IC50: 20.4 nM

## CCCCCCN1CC(=O)N[C@@H](Cc2ccc(O)cc2)C(=O)N[C@@H](CCCC)C(=O)N[C@@H](CC(=O)O)C(=O)N[C@@H](CCCNC(=N)N)C(=O)N[C@@H](CC(C)C)C(=O)N[C@@H](CCCCC)C(=O)N2CCC[C@H]2C(=O)N[C@@H](C(C)C)C(=O)N[C@@H](CC(=O)O)C(=O)N[C@H](C(=O)N[C@@H](CO)C(N)=O)CSCC(=O)N[C@@H](Cc2cccc(C)c2)C(=O)N[C@@H](Cc2c[nH]c3ccccc23)C(=O)N[C@@H](CC(=O)O)C1=O [compound 1428] ({CH2CO}-[Phe(3-Me)]WD[NHexGly]Y[Nle]DRL[Ahp(2)]PVDCS-NH2; thioether N-14)
The 19th table, scaffold drawing 22, read-out: HC CBA mVISTA IC50
  IC50: 13.6 nM

## CCCCCCN1CC(=O)N[C@@H](Cc2ccc(O)cc2)C(=O)N[C@@H](CCCC)C(=O)N[C@@H](CC(N)=O)C(=O)N[C@@H](CCCNC(=N)N)C(=O)N(C)[C@@H](CCCC)C(=O)N[C@@H](CCCCC)C(=O)N2CCC[C@H]2C(=O)N[C@@H](C(C)C)C(=O)N[C@@H](C(C)C)C(=O)N[C@H](C(=O)NCC(=O)O)CSCC(=O)N[C@@H](Cc2ccccc2)C(=O)N[C@@H](Cc2c[nH]c3ccccc23)C(=O)N[C@@H](CC(=O)O)C1=O [Example 1383] ({CH2CO}-FWD[NHexGly]Y[Nle]NR[NMeNle][Ahp(2)]PVVCG-OH; thioether N-14)
read-out: HC CBA mVISTA IC50
  IC50: 16.9 nM

## CCCCCCN1CC(=O)N[C@@H](Cc2ccc(O)cc2)C(=O)N[C@@H](CCCC)C(=O)NCC(=O)N[C@@H](CCCNC(=N)N)C(=O)N[C@@H](CC(C)C)C(=O)N[C@@H](CCCCC)C(=O)N2CCC[C@H]2C(=O)N[C@@H](C(C)C)C(=O)N[C@@H](CC(=O)O)C(=O)N[C@H](C(=O)NCC(=O)O)CSCC(=O)N[C@@H](Cc2ccccc2)C(=O)N[C@@H](Cc2ccc(O)cc2)C(=O)N[C@@H](CC(=O)O)C1=O [Example 1009] ({CH2CO}-FYD[NHexGly]Y[Nle]GRL[Ahp(2)]PVDCG-OH; thioether N-14)
[1]
  IC50: 8 nM

Source: patent US20240218022A1, “ANTI-VISTA MACROCYCLIC PEPTIDES AND COMPOSITIONS” (BRISTOL-MYERS SQUIBB COMPANY, priority 2022, published 2024)
